# Patent US20060287319A1, “Anti-viral compositions comprising heterocyclic substituted phenyl furans and related compounds” (priority 2005, published 2006)
# Like-named read-outs stand apart in the source and are kept apart here.
# Legend:
# MT-2 cells = system: MT-2 cells
# Method: Detection of in vitro cytotoxicity. The in vitro cytotoxicity of compounds for MT-2 cells was measured by a colorimetric method using XTT tetrazolium dye as previously described (21). Briefly, 100 μl of a compound at a graded concentration was added to equal volume of cells (5×10^5/ml) in a well of 96-well plates. After incubation at 37° C. for 4 days, XTT (1 mg/ml; […]; PolySciences, Inc., Warrington, Pa.) was added. Four hours later, the soluble intracellular formazan was quantitated colorimetrically at 450 nm with a reference at 570 nm.
# HIV-1 IIIB [1] = experiment: HIV-1-mediated cytopathic effect (CPE); type: cell-based; settings: read-out: EC50 (μM) (M ± SD) for inhibition of CPE
# Excerpt: We thus purchased these compounds and tested their inhibitory activity on: 1) HIV-1 replication (p24 production); 2) HIV-1-mediated cytopathic effect (CPE); and 3) HIV-1 Env-induced cell-cell fusion; and their cytotoxicity to MT-2 cells.
# [2] = system: HIV-1IIIB infected H9 cells (H9/HIV-1IIIB) and MT-2 cells; experiment: HIV-1 mediated cell-cell fusion (dye transfer assay); type: cell-based; settings: H9/HIV-1IIIB with MT-2 cells; read-out: EC50 (μM) (M ± SD) for inhibition of Cell fusion
# Method: Inhibition of cell-cell fusion. A dye transfer assay was used for detection of HIV-1 mediated cell fusion as previously described (11,25,26). H9/HIV-1IIIB cells were labeled with a fluorescent reagent, Calcein-AM (Molecular Probes, Inc., Eugene, Oreg.) and then incubated with MT-2 cells (ratio=1:5) in 96-well plates at 37° C. for 2 hrs in the presence or absence of compounds tested. The fused and unfused Cacein-labeled HIV-1-infected cells were counted under an inverted fluorescence microscope (Zeiss, Germany) with an eyepiece micrometer disc. The percentage of inhibition of cell fusion and the IC50 values were calculated as previously described (11).
# HIV-1 IIIB [3] = settings: for EC50: read-out: EC50 (μM) (M ± SD) for inhibition of p24, HIV-1 IIIB, MT-2 cells
# Method: Assessment of anti-HIV-1 infectivity. The inhibitory activity of compounds on infection by laboratory-adapted HIV-1 strains was determined as previously described (34). […] For the time-of-addition assay, compounds were added at various time post-infection. Then the culture supernatants were removed and fresh media were added. On the fourth day post-infection, 100 μl of culture supernatants were collected from each well, mixed with equal volumes of 5% Triton X-100 and assayed for p24 antigen, which was quantitated by ELISA (23). Briefly, the wells of polystyrene plates (Immulon 1B, Dynex Technology, Chantilly, Va.) were coated with HIV immunoglobulin (HIVIG), which was prepared from plasma of HIV-seropositive donors with high neutralizing titers against HIV-1IIIB as previously described (36) in 0.085 M carbonate-bicarbonate buffer (pH 9.6) at 4° C. overnight, followed by washes with PBS-T buffer (0.01M PBS containing 0.05% Tween-20) and blocking with PBS containing 1% dry fat-free milk (Bio-Rad Inc., Hercules, Calif.). Virus lysates were added to the wells and incubated at 37° C. for 1 h. […] Reactions were terminated by addition of 1N H2SO4. […] Recombinant protein p24 (US Biological, Swampscott, Mass.) was included for establishing standard dose response curve.
# [4] = read-out: Cytotoxicity CC50 (μM) (M ± SD), MT-2 cells
Structure (SMILES),CC50 (MT-2 cells; [4]),EC50 (HIV-1 IIIB [1]),EC50 [2],EC50 (HIV-1 IIIB [3]),CC50 (MT-2 cells),SI (CC50/EC50) (HIV-1 IIIB [3]),SI (CC50/EC50) (HIV-1 IIIB [3]; selectivity index)
O=C(O)c1cc(-c2ccc(/C=C3\SC(=O)N(Cc4ccc(F)cc4)C3=O)o2)ccc1Cl [NB191],> 349 µM,> 100 µM,> 100 µM,> 100 µM,–,–,–
O=C(O)CN1C(=O)/C(=C/c2ccc(-c3cccc(C(=O)O)c3)o2)SC1=S [NB180],–,> 100 µM,> 100 µM,> 100 µM,> 411 µM,–,–
C#CCN1C(=O)S/C(=C\c2ccc(-c3cc(C(=O)O)ccc3C)o2)C1=O [NB205],–,> 100 µM,> 100 µM,> 100 µM,> 435 µM,–,–
COCCN1C(=O)/C(=C/c2ccc(-c3ccc(Cl)c(C(=O)O)c3)o2)SC1=S [NB201],–,> 100 µM,33.2 ± 0.566 µM,10.7 ± 3.09 µM,118 ± 8.54 µM,11.08,–
O=C(O)CN1C(=O)/C(=C/c2ccc(-c3cc(C(=O)O)ccc3Cl)o2)SC1=S [NB235],–,> 100 µM,> 100 µM,> 100 µM,> 378 µM,–,–
Cc1cccc(NC(=O)CN2C(=O)S/C(=C\c3ccc(-c4ccc(Cl)c(C(=O)O)c4)o3)C2=O)c1 [NB207],–,> 100 µM,> 100 µM,> 100 µM,> 464 µM,–,–
Cc1c(C(=O)O)cccc1-c1ccc(/C=C2\SC(=O)N(CC(=O)Nc3ccccc3F)C2=O)o1 [NB195],154 ± 6.93 µM,> 100 µM,> 100 µM,> 100 µM,–,–,–
Cc1ccc(N2C(=O)/C(=C/c3ccc(-c4cccc(C(=O)O)c4)o3)SC2=S)cc1 [NB230],142 µM,2.16 ± 0.284 µM,3.08 ± 0.047 µM,0.332 ± 0.095 µM,–,–,428.93
Cc1ccc(NC(=O)CN2C(=O)S/C(=C\c3ccc(-c4cc(C(=O)O)ccc4Cl)o3)C2=O)cc1 [NB197],–,> 100 µM,> 100 µM,> 100 µM,> 341 µM,–,–
CCN1C(=O)/C(=C/c2ccc(-c3ccc(Cl)c(C(=O)O)c3)o2)SC1=S [NB214],–,3.53 ± 0.738 µM,2.23 ± 0.082 µM,0.943 ± 0.144 µM,44.8 ± 1.25 µM,47.5,–
COC(=O)C(C)N1C(=O)S/C(=C\c2ccc(-c3cc(C(=O)O)ccc3C)o2)C1=O (centres unmarked) [NB237],–,> 100 µM,> 100 µM,> 100 µM,67.7 ± 15 µM,–,–
O=C(O)c1cccc(-c2ccc(/C=C3\SC(=S)N(c4ccc(F)cc4)C3=O)o2)c1 [NB229],–,> 100 µM,> 100 µM,> 100 µM,> 376 µM,–,–
O=C1/C(=C/c2ccc(-c3cccc(Cl)c3)o2)SC(=S)N1c1ccccc1 [NB239],> 402 µM,> 100 µM,> 100 µM,> 100 µM,–,–,–
O=C(O)c1cc(-c2ccc(/C=C3\SC(=O)N(c4cccc(Cl)c4)C3=O)o2)ccc1Cl [NB139],239 ± 14.7 µM,> 100 µM,> 100 µM,> 100 µM,–,–,–
COc1ccc(CN2C(=O)/C(=C/c3ccc(-c4ccc(Cl)c(C(=O)O)c4)o3)SC2=S)cc1 [NB211],–,2.23 ± 0.515 µM,68.6 ± 1.83 µM,1.13 ± 0.103 µM,93.2 ± 4.41 µM,82.24,–
Cc1ccc(NC(=O)CN2C(=O)S/C(=C\c3ccc(-c4ccc(Cl)c(C(=O)O)c4)o3)C2=O)cc1 [NB199],–,> 100 µM,> 100 µM,> 100 µM,> 322 µM,–,–
COc1ccc(N2C(=O)/C(=C/c3ccc(-c4cccc(C(=O)O)c4)o3)SC2=S)cc1 [NB156],> 399 µM,3.16 ± 1.35 µM,2.66 µM,0.779 ± 0.092 µM,–,–,>470.59
O=C(O)c1cccc(-c2ccc(/C=C3\SC(=S)N(c4cccc(F)c4)C3=O)o2)c1 [NB147],92.3 ± 5.62 µM,> 100 µM,> 100 µM,10.4 ± 0.84 µM,–,–,8.85
CCOC(=O)CN1C(=O)S/C(=C\c2ccc(-c3ccc(Cl)c(C(=O)O)c3)o2)C1=O [NB204],–,> 100 µM,> 100 µM,> 100 µM,> 366 µM,–,–
O=C(O)c1cc(-c2ccc(/C=C3\SC(=O)N(CC(=O)N4CCOCC4)C3=O)o2)ccc1Cl [NB202],> 336 µM,> 100 µM,> 100 µM,> 100 µM,–,–,–
Cc1cccc(N2C(=O)/C(=C/c3ccc(-c4cccc(C(=O)O)c4)o3)SC2=S)c1 [NB150],38.7 ± 5.85 µM,0.403 ± 0.119 µM,0.56 ± 0.05 µM,0.308 ± 0.047 µM,–,–,125.69
O=C(O)c1cccc(-c2ccc(/C=C3\SC(=O)N(c4ccc(Cl)cc4)C3=O)o2)c1 [NB160],> 376 µM,> 100 µM,> 100 µM,> 100 µM,–,–,–
O=C(O)c1cccc(-c2ccc(/C=C3\SC(=S)N(c4cccc5ccccc45)C3=O)o2)c1 [NB221],34.5 ± 0.46 µM,1.58 ± 0.241 µM,7.11 ± 0.24 µM,0.46 ± 0.009 µM,–,–,75.04
Cc1ccc(NC(=O)CN2C(=O)S/C(=C\c3ccc(-c4cccc(C(=O)O)c4C)o3)C2=O)cc1 [NB196],–,> 100 µM,> 100 µM,> 100 µM,> 336 µM,–,–
O=C1NC(=S)S/C1=C\c1ccc(-c2ccc(Cl)c(C(=O)O)c2)o1 [NB185],–,50.3 ± 4.09 µM,> 100 µM,76.9 ± 3.52 µM,> 437 µM,>5.68,–
O=C(O)c1cc(-c2ccc(/C=C3\SC(=S)N(C4CCCCC4)C3=O)o2)ccc1Cl [NB219],6.87 ± 0.29 µM,0.401 ± 0.067 µM,4.3 ± 0.134 µM,0.087 ± 0.04 µM,–,–,78.97
Cc1ccc(N2C(=O)/C(=C/c3ccc(-c4cccc(C(=O)O)c4)o3)SC2=S)c(C)c1 [NB146],33.8 ± 4.44 µM,1.77 ± 0.368 µM,1.08 µM,0.299 ± 0.046 µM,–,–,103.15
